In patent publication US20210205415A1 (Longevity Biotech, Inc., priority 2010, published 2021):
No end group written: not given here.

Tests used:
[1] = molecular target: T1, VIPR1 (Homo sapiens, UniProt P32241); test: cAMP Hunter cell line agonist mode assay (DiscoveRx HitHunter cAMP XS+); type: cell-based; conditions: for Mean RLU: readout cAMP, cell line VIPR1
T1 sequence (P32241 31-457): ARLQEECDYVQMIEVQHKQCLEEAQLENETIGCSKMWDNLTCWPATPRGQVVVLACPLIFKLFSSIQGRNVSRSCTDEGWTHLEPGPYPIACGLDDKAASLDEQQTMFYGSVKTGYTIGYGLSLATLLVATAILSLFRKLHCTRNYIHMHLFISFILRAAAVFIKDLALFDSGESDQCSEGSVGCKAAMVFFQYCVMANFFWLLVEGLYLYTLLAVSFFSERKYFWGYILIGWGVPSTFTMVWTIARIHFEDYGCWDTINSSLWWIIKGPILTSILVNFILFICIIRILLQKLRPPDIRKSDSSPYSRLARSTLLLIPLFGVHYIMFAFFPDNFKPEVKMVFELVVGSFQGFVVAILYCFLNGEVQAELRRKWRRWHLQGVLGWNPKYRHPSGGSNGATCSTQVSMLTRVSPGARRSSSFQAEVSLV
Protocol: (§1) Once it was established that the cells were healthy and growing normally, cells were passaged from flasks using cell dissociation reagent buffer and seeded into white walled clear bottom 384-well microplates for compound profiling. For profiling, cells were seeded at a density of 10,000 cells per well in a total volume of 20 μL and were allowed to adhere and recover overnight prior to compound addition. cAMP modulation was determined using the DiscoveRx HitHunter cAMP XS+ assay.
(§2) For profiling compound in agonist mode, the cells were incubated in the presence of compound at 37° C. for 30 minutes. […] After appropriate compound incubation, assay signal was generated through incubation with DiscoverX lysis cocktail according to the manufacturers standard protocol. Dose curves were plotted using GraphPad Prism or Activity Base. Percentage activity is calculated using the following formula:
(§3) % Activity=100% ×(mean RLU of test sample−mean RLU of vehicle control)/(mean RLU of MAX control−mean RLU of vehicle control).

[2] = molecular target: T2, VIPR2 (Homo sapiens, UniProt P41587); test: as above; type: cell-based; conditions: for Mean RLU: readout cAMP, cell line VIPR2
T2 sequence (P41587 24-438): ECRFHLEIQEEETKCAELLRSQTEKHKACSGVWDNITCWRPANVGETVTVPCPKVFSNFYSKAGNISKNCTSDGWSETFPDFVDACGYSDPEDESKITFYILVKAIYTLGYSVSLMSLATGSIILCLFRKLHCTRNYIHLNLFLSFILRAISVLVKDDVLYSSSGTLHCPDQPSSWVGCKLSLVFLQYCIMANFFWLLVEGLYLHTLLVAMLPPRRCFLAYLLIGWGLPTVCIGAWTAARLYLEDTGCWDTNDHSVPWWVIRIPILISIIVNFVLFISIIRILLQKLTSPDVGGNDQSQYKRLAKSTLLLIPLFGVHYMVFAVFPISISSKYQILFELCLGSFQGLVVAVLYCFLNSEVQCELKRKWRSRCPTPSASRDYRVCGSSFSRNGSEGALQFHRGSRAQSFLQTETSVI
Protocol: as §1, §2, §3

[3] = molecular target: T3, HEK-mCRF2β cells (Mus musculus, UniProt Q60748); conditions: cited from earlier work
T3 construct: expressed in transfected cells; host or cells: HEK cells (value quoted from the literature)

[4] = molecular target: T4, rat CRF1 receptors (Rattus norvegicus, UniProt P35353); conditions: read-out: Kd for binding to rat CRF1 receptors; cited from earlier work
T4 sequence (P35353 24-415): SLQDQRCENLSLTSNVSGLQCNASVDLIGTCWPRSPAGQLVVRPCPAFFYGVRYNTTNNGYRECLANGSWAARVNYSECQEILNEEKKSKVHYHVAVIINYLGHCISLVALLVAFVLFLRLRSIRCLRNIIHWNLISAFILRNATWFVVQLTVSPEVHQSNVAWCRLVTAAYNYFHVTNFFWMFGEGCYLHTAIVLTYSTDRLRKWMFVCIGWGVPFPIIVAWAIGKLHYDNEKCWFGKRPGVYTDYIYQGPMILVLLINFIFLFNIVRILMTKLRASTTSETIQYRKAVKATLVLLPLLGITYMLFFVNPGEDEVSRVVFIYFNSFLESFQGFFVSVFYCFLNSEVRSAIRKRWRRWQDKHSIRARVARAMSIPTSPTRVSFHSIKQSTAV

[5] = molecular target: mouse CRF2β (Mus musculus, UniProt Q60748); conditions: read-out: Kd for binding to mouse CRF2β; cited from earlier work
[6] = molecular target: T5, CRF2α (Homo sapiens, UniProt Q13324); conditions: cited from earlier work
T5 sequence (Q13324 1-411): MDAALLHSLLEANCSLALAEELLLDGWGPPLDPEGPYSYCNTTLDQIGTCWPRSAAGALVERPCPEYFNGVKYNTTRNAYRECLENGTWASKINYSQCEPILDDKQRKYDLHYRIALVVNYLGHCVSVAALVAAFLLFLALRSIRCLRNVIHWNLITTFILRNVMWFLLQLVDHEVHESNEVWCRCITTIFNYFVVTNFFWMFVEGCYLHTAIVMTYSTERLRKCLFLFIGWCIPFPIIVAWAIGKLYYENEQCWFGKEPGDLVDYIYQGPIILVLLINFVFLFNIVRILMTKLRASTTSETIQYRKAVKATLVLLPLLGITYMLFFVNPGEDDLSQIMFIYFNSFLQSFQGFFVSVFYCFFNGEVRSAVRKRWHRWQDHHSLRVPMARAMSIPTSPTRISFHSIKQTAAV

[7] = tested on: calcitonin (CT) receptor; conditions: cited from earlier work
[8] = tested on: calcitonin-gene related peptide (CGRP) and adrenomedullin receptors; conditions: cited from earlier work
[9] = molecular target: neurotensin receptors; conditions: rat brain receptors; read-out: IC50 for inhibition of {Trp11}-NT binding; cited from earlier work
[10] = molecular target: T6, Glucagon receptor (Rattus norvegicus, UniProt P30082); conditions: rat liver membranes; cited from earlier work
T6 construct: from tissue; host or cells: rat liver membranes (value quoted from the literature)

[11] = humans; cited from earlier work
[12] = molecular target: T7, VPAC1 receptor (Homo sapiens, UniProt P32241); conditions: cited from earlier work
T7 sequence (P32241 31-457): T1 sequence (P32241 31-457)

[13] = molecular target: T8, VPAC2 receptors (Homo sapiens, UniProt P41587); conditions: read-out: IC50 for VPAC2 receptor; cited from earlier work
T8 sequence (P41587 24-438): T2 sequence (P41587 24-438)

T6 sequence (P30082 27-485): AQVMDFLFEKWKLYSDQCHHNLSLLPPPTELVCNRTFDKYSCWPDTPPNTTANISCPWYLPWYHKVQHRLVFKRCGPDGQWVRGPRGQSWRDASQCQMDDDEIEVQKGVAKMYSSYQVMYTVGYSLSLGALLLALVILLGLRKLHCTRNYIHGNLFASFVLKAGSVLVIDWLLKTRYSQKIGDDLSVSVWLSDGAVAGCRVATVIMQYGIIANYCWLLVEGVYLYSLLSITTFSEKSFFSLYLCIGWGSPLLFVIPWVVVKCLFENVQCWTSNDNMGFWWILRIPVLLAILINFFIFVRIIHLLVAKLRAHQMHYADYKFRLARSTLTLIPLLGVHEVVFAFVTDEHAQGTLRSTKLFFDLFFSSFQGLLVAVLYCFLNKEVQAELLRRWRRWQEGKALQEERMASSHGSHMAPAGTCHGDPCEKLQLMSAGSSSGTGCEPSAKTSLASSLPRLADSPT
T3 sequence (Q60748 1-431 isoform Q60748-2): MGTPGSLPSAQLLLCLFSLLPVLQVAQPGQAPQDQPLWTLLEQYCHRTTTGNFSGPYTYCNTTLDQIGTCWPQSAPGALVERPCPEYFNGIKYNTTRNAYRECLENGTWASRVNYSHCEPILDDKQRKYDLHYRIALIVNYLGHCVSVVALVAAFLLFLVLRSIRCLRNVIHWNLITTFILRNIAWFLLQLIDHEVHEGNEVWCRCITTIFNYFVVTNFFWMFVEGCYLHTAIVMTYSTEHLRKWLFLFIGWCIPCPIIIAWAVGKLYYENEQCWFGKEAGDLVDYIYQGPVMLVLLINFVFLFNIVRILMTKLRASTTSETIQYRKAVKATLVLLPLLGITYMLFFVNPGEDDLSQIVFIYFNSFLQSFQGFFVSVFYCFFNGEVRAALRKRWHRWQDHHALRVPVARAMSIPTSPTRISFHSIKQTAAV
Chain of mouse CRF2β (Q60748 1-431 isoform Q60748-2): as above

## CC[C@H](C)[C@H](NC(=O)[C@H]1CCC[C@@H]1NC(=O)[C@H](CC(N)=O)NC(=O)[C@H](CC(C)C)NC(=O)[C@H](Cc1ccc(O)cc1)NC(=O)[C@H]1CNC[C@@H]1NC(=O)[C@H](CCCCN)NC(=O)[C@@H](NC(=O)[C@H]1CCC[C@@H]1NC(=O)[C@H](CC(C)C)NC(=O)[C@H](CCC(N)=O)NC(=O)[C@H](CCCCN)NC(=O)[C@H]1CNC[C@@H]1NC(=O)[C@H](CC(C)C)NC(=O)[C@H](CCCNC(=N)N)NC(=O)[C@H]1CCC[C@@H]1NC(=O)[C@H](Cc1ccc(O)cc1)NC(=O)[C@H](CC(N)=O)NC(=O)[C@H](CC(=O)O)NC(=O)[C@@H](NC(=O)[C@H](Cc1ccccc1)NC(=O)[C@@H](NC(=O)[C@H](C)NC(=O)[C@H](CC(=O)O)NC(=O)[C@H](CO)NC(=O)[C@@H](N)Cc1c[nH]cn1)C(C)C)[C@@H](C)O)C(C)C)C(=O)N[C@H](CC(=O)NC(CC(N)=O)CC(N)=O)CC(C)C [Compound 8, HSDAVFTDNYXRLZKQLXVKZYLNXILN]
[1]; FIG. 3 legend
  EC50 compared with wild-type VIP: higher than the EC50 of wild-type VIP protein
[1]; FIG. 3 legend, read-out: activation of VIPR1 relative to maximum activation
  Emax: ~100%
[1]; [Compound] 1.00E−08 M, agonist mode
  Mean RLU: 13750.0 RLU
[1]; [Compound] 1.00E−09 M, agonist mode
  Mean RLU: 18600.0 RLU
[1]; [Compound] 1.00E−10 M, agonist mode
  Mean RLU: 9060.0 RLU
[1]; [Compound] 1.00E−11 M, agonist mode
  Mean RLU: 10500.0 RLU
[1]; [Compound] 1.00E−12 M, agonist mode
  Mean RLU: 10340.0 RLU
[1]; [Compound] 5.00E−09 M, agonist mode
  Mean RLU: 13250.0 RLU
[1]; [Compound] 5.00E−10 M, agonist mode
  Mean RLU: 9520.0 RLU
[1]; agonist mode, FIG. 3
  activation of VIPR1: fully activate VIPR1
[2]
  interaction with VIPR2: does not interact substantially with VIPR2
[2]; FIG. 3
  activation of VIPR2: not activate VIPR2
[2]; [Compound] 1.00E−07 M
  Mean RLU: 5920.0 RLU
[2]; [Compound] 1.00E−08 M
  Mean RLU: 9580.0 RLU
[2]; [Compound] 1.00E−09 M
  Mean RLU: 5960.0 RLU
[2]; [Compound] 1.00E−10 M
  Mean RLU: 7560.0 RLU
[2]; [Compound] 1.00E−11 M
  Mean RLU: 9250.0 RLU
[2]; [Compound] 1.00E−12 M
  Mean RLU: 8960.0 RLU
[2]; [Compound] 5.00E−07 M
  Mean RLU: 10200.0 RLU
[2]; [Compound] 5.00E−08 M
  Mean RLU: 9200.0 RLU
[2]; [Compound] 5.00E−09 M
  Mean RLU: 3560.0 RLU
[2]; [Compound] 5.00E−10 M
  Mean RLU: 9620.0 RLU

## Antisauvagine-30
[3]
  pA2, inhibition of sauvagine-stimulated cAMP accumulation: accumulation in HEK-mCRF2β cells (pA2=849) Prevents stress-
[4]
  Kd: 1.54 µM
[5]
  Kd: 0.014 µM

## Astressin
[6]
  Ki: 0.015 µM

## Calcitoninreceptor-stimulating peptide-1 (SCNTATCMTHRLVGLLSRSGSMVRSNLLPTKMGFKVFG-NH2; ends and bridges not checked; UniProt Q862B1 81-118, looked up)
[7]; calcitonin (CT) receptor
  ED50, stimulation of cAMP formation: 0.002 µM
[7]; greater than CT
  potency of cAMP formation relative to CT: 350 fold
[8]
  activity at CGRP and adrenomedullin receptors: no activity at calcitonin-gene related peptide (CGRP) and adrenomedullin

## Neuromedin N (rat, mouse, porcine, canine) (KIPYIL; Neuromedin N; UniProt P20068 142-147, looked up)
[9]
  IC50: 0.167 µM

## des-His1-{Glu9}-Glucagon (1-29) amide
[10]
  pA2 for inhibition of glucagon-induced adenylyl cyclase activation: (Glucagon receptor antagonist (pA2=72 for inhibition of glucagon-induced

## glucagon-like peptide-1 [GLP-1]
[11]
  plasma half-life: 2 min

## {Ala2,8,9,11,19,22,24,25,27,28}-VIP
[12]
  IC50: 0.115 to 0.132 µM
[13]
  IC50: > 30 µM
